Results: the supplement of paper PMC10307832

Experiments:
Assay in all cases: relative viability (nuclei count vs DMSO), 5 days (fraction); higher = more cells survive
[1] = system: HARA
How it was run: (§1)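 A single step with final 0.05% Triton X-100, 1% formaldehyde and 1 ug/ml Hoechst fixed the cells and stained nuclei 5 days after treatment. Lung cancer cell lines in 1536-well plates had been treated by pin tool the day after seeding with one drug alone or a fixed anchor-drug dose plus five library-drug doses (not always all listed) in √10 steps, and nuclei were counted on 4× images. Relative viability is the ratio of nuclei in treated wells to nuclei in vehicle wells, taken as the median of duplicate plates.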

[2] = system: HCC-827
How it was run: as §1

[3] = system: NCI-H596
How it was run: as §1

[4] = system: SK-LU-1
How it was run: as §1

[5] = system: NCI-H661
How it was run: as §1

[6] = system: BEN
How it was run: as §1

[7] = system: NCI-H2170
How it was run: as §1

[8] = system: NCI-H2405
How it was run: as §1

[9] = system: NCI-H2087
How it was run: as §1

[10] = system: HCC-366
How it was run: as §1

[11] = system: NCI-H2342
How it was run: as §1

[12] = system: NCI-H2228
How it was run: as §1

[13] = system: LOU-NH91
How it was run: as §1

[14] = system: NCI-H1437
How it was run: as §1

[15] = system: NCI-H1734
How it was run: as §1

[16] = system: NCI-H1792
How it was run: as §1

[17] = system: NCI-H1355
How it was run: as §1

[18] = system: NCI-H2009
How it was run: as §1

[19] = system: SK-MES-1
How it was run: as §1

[20] = system: EKVX
How it was run: as §1

[21] = system: HCC-44
How it was run: as §1

[22] = system: NCI-H1395
How it was run: as §1

[23] = system: NCI-H647
How it was run: as §1

[24] = system: LC-2-ad
How it was run: as §1

In the case of CC(C)Oc1cc(Nc2nc(N[C@@H](C)c3ccc(F)cn3)ncc2Cl)n[nH]1 [AZ23] + O=C(c1cc(Cc2n[nH]c(=O)c3ccccc23)ccc1F)N1CCN(C(=O)C2CC2)CC1 [Olaparib] (partner 8 µM), the relative viability ([1]; first compound 0.01 µM) is reported as 0.292, the relative viability ([1]; first compound 0.03162 µM) is reported as 0.575 and the relative viability ([1]; first compound 0.3162 µM) is reported as 0.969. For the same compound, the relative viability ([2]; first compound 0.01 µM) was 0.665, the relative viability ([2]; first compound 0.03162 µM) was 0.764 and the relative viability ([2]; first compound 0.3162 µM) was 0.712. The relative viability ([3]; first compound 0.01 µM) was 0.603, the relative viability ([3]; first compound 0.03162 µM) was 0.749 and the relative viability ([3]; first compound 0.3162 µM) was 0.665. It also gave a relative viability ([4]; first compound 0.03162 µM) of 0.564, a relative viability ([4]; first compound 0.3162 µM) of 0.47 and a relative viability ([5]; first compound 0.01 µM) of 0.823. The relative viability ([5]; first compound 0.03162 µM) was 0.792, the relative viability ([5]; first compound 0.3162 µM) was 0.738 and the relative viability ([6]; first compound 0.01 µM) was 1.03. It also gave a relative viability ([6]; first compound 0.03162 µM) of 1.24, a relative viability ([6]; first compound 0.3162 µM) of 1.16 and a relative viability ([7]; first compound 0.01 µM) of 0.649. It also gave a relative viability ([7]; first compound 0.03162 µM) of 0.658, a relative viability ([7]; first compound 0.3162 µM) of 0.619 and a relative viability ([8]; first compound 0.01 µM) of 0.855. For the same compound, the relative viability ([8]; first compound 0.03162 µM) was 0.903, the relative viability ([8]; first compound 0.3162 µM) was 0.831 and the relative viability ([9]; first compound 0.01 µM) was 0.819. It also gave a relative viability ([9]; first compound 0.03162 µM) of 0.73, a relative viability ([9]; first compound 0.3162 µM) of 0.642 and a relative viability ([10]; first compound 0.01 µM) of 0.19. It also gave a relative viability ([10]; first compound 0.03162 µM) of 0.451, a relative viability ([10]; first compound 0.3162 µM) of 0.511 and a relative viability ([11]; first compound 0.01 µM) of 0.413. It also gave a relative viability ([11]; first compound 0.03162 µM) of 0.473, a relative viability ([11]; first compound 0.3162 µM) of 0.399 and a relative viability ([12]; first compound 0.01 µM) of 0.53. The relative viability ([12]; first compound 0.03162 µM) was 0.775, the relative viability ([12]; first compound 0.3162 µM) was 0.589 and the relative viability ([13]; first compound 0.01 µM) was 0.958. It also gave a relative viability ([13]; first compound 0.03162 µM) of 0.961, a relative viability ([13]; first compound 0.3162 µM) of 0.94 and a relative viability ([14]; first compound 0.01 µM) of 0.714. The relative viability ([14]; first compound 0.03162 µM) was 0.618, the relative viability ([14]; first compound 0.3162 µM) was 0.648 and the relative viability ([15]; first compound 0.01 µM) was 0.628. For the same compound, the relative viability ([15]; first compound 0.03162 µM) was 0.673, the relative viability ([15]; first compound 0.3162 µM) was 0.6 and the relative viability ([16]; first compound 0.01 µM) was 0.27. It also gave a relative viability ([16]; first compound 0.03162 µM) of 0.594, a relative viability ([16]; first compound 0.3162 µM) of 0.373 and a relative viability ([17]; first compound 0.01 µM) of 0.808. It also gave a relative viability ([17]; first compound 0.03162 µM) of 0.771, a relative viability ([17]; first compound 0.3162 µM) of 0.699 and a relative viability ([18]; first compound 0.01 µM) of 0.814. It also gave a relative viability ([18]; first compound 0.03162 µM) of 0.769, a relative viability ([18]; first compound 0.3162 µM) of 0.79 and a relative viability ([19]; first compound 0.03162 µM) of 0.833. For the same compound, the relative viability ([19]; first compound 0.3162 µM) was 0.764, the relative viability ([20]; first compound 0.01 µM) was 0.912 and the relative viability ([20]; first compound 0.03162 µM) was 0.97. It also gave a relative viability ([20]; first compound 0.3162 µM) of 0.895, a relative viability ([21]; first compound 0.01 µM) of 1.04 and a relative viability ([21]; first compound 0.03162 µM) of 1.04. It also gave a relative viability ([21]; first compound 0.3162 µM) of 0.979, a relative viability ([22]; first compound 0.03162 µM) of 0.424 and a relative viability ([22]; first compound 0.3162 µM) of 0.452. It also gave a relative viability ([23]; first compound 0.01 µM) of 0.68, a relative viability ([23]; first compound 0.03162 µM) of 0.687 and a relative viability ([23]; first compound 0.3162 µM) of 0.812. For the same compound, the relative viability ([24]; first compound 0.01 µM) was 0.811, the relative viability ([24]; first compound 0.03162 µM) was 0.772 and the relative viability ([24]; first compound 0.3162 µM) was 0.824.
